Reference: PubChem BioAssay AID192 (DTP/NCI, 2004)
Several values for one entry are separate records, joined by “and”; a condition that tells them apart may be missing. Identical values can stand only once. Toxic doses and inconclusive results are not listed.

Tested on: BDF1 mice, B16 melanoma ip, median survival T/C
Test: NCI In Vivo Anticancer Drug Screen. Data for tumor model B16 Melanoma (intraperitoneal) in B6D2F1 (BDF1) mice
Conditions: endpoint: median survival time, higher = longer survival
How it was run: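 Survival or tumor size is measured after treatment of tumor-bearing mice and normalised to the vehicle-treated control group.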

[1] = dose: 6.25 mg/kg/injection, schedule: Q01DX009 (ip), vehicle: Klucel (hydroxypropylcellulose) (HPC)
[2] = dose: 12.5 mg/kg/injection, schedule: Q01DX009 (ip), vehicle: Klucel (hydroxypropylcellulose) (HPC)
[3] = dose: 25.0 mg/kg/injection, schedule: Q01DX009 (ip), vehicle: Klucel (hydroxypropylcellulose) (HPC)
[4] = dose: 50.0 mg/kg/injection, schedule: Q01DX009 (ip), vehicle: Klucel (hydroxypropylcellulose) (HPC)
[5] = dose: 100.0 mg/kg/injection, schedule: Q01DX009 (ip), vehicle: Klucel (hydroxypropylcellulose) (HPC)
[6] = dose: 200.0 mg/kg/injection, schedule: Q01DX009 (ip), vehicle: Klucel (hydroxypropylcellulose) (HPC)
[7] = dose: 100.0 mg/kg/injection, schedule: Q01DX009 (ip), vehicle: saline with Tween-80
[8] = dose: 25.0 mg/kg/injection, schedule: Q01DX009 (ip), vehicle: saline with Tween-80
[9] = dose: 50.0 mg/kg/injection, schedule: Q01DX009 (ip), vehicle: saline with Tween-80

Oc1cc2c(cc1O)[C@H]1c3ccc(O)c(O)c3OC[C@@]1(O)C2
T/C (dose: 25.0 mg/kg/injection, schedule: Q01DX009 (ip), vehicle: saline): 100 % of control | T/C (dose: 50.0 mg/kg/injection, schedule: Q01DX009 (ip), vehicle: saline): 102 % of control | T/C (dose: 100.0 mg/kg/injection, schedule: Q01DX009 (ip), vehicle: saline): 103 % of control | T/C (dose: 200.0 mg/kg/injection, schedule: Q01DX009 (ip), vehicle: saline): 108 % of control | T/C (dose: 400.0 mg/kg/injection, schedule: Q01DX009 (ip), vehicle: saline): 103 % of control

CC(=O)NC(Cc1cc(I)c(O)c(I)c1)C(=O)O (stereo not drawn)
T/C [1]: 103 % of control | T/C [2]: 108 % of control | T/C [3]: 96 % of control and 101 % of control | T/C [4]: 95 % of control | T/C [5]: 98 % of control | T/C [6]: 93 % of control

O=Cc1cc2c(cc1Cl)OCO2
T/C [7]: 107 % of control | T/C (dose: 200.0 mg/kg/injection, schedule: Q01DX009 (ip), vehicle: saline with Tween-80): 101 % of control | T/C (dose: 400.0 mg/kg/injection, schedule: Q01DX009 (ip), vehicle: saline with Tween-80): 99 % of control

N#Cc1ncc(C(Cl)Cl)nc1Cl
T/C (dose: 3.13 mg/kg/injection, schedule: Q01DX009 (ip), vehicle: saline + alcohol): 96 % of control | T/C (dose: 6.25 mg/kg/injection, schedule: Q01DX009 (ip), vehicle: saline + alcohol): 91 % of control | T/C (dose: 12.5 mg/kg/injection, schedule: Q01DX009 (ip), vehicle: saline + alcohol): 93 % of control | T/C (dose: 25.0 mg/kg/injection, schedule: Q01DX009 (ip), vehicle: saline + alcohol): 89 % of control | T/C [8]: 94 % of control

COc1ccc(C2=CC(=O)N(C(C)C)C2=O)cc1
T/C (dose: 20.0 mg/kg/injection, schedule: Q04DX003 (ip), vehicle: saline with Tween-80): 109 % of control | T/C (dose: 40.0 mg/kg/injection, schedule: Q04DX003 (ip), vehicle: saline with Tween-80): 113 % of control | T/C (dose: 80.0 mg/kg/injection, schedule: Q04DX003 (ip), vehicle: saline with Tween-80): 111 % of control

c1ccc2c(c1)Cc1cc3ccccc3nc1-2
T/C (dose: 100.0 mg/kg/injection, schedule: Q04DX003 (ip), vehicle: Klucel (hydroxypropylcellulose) (HPC)): 102 % of control | T/C (dose: 200.0 mg/kg/injection, schedule: Q04DX003 (ip), vehicle: Klucel (hydroxypropylcellulose) (HPC)): 114 % of control | T/C (dose: 400.0 mg/kg/injection, schedule: Q04DX003 (ip), vehicle: Klucel (hydroxypropylcellulose) (HPC)): 98 % of control

CCCC(C)c1ccccc1O (stereo not drawn)
T/C [8]: 108 % of control | T/C [9]: 108 % of control | T/C [7]: 92 % of control

COc1cccc(NC(=O)Nc2cccc(Cl)c2)c1
T/C [5]: 103 % of control | T/C [6]: 96 % of control | T/C (dose: 400.0 mg/kg/injection, schedule: Q01DX009 (ip), vehicle: Klucel (hydroxypropylcellulose) (HPC)): 103 % of control

Cc1cccc(NC(=O)Nc2ccccc2)c1C
T/C [5]: 100 % of control

CC1(C)Oc2c(ccc(O)c2CN2CCOCC2)C2=C1CCCC2
T/C (dose: 64.0 mg/kg/injection, schedule: Q01DX009 (ip), vehicle: Klucel (hydroxypropylcellulose) (HPC)): 96 % of control | T/C (dose: 128.0 mg/kg/injection, schedule: Q01DX009 (ip), vehicle: Klucel (hydroxypropylcellulose) (HPC)): 96 % of control | T/C (dose: 256.0 mg/kg/injection, schedule: Q01DX009 (ip), vehicle: Klucel (hydroxypropylcellulose) (HPC)): 101 % of control

C=CS(=O)(=O)c1ccccc1
T/C (dose: 12.5 mg/kg/injection, schedule: Q01DX009 (ip), vehicle: saline with Tween-80): 96 % of control | T/C [8]: 94 % of control | T/C [9]: 98 % of control

O=c1ssc(=Nc2ccccc2)n1-c1ccccc1
T/C [2]: 102 % of control | T/C [3]: 102 % of control | T/C [4]: 100 % of control | T/C [5]: 106 % of control | T/C [6]: 91 % of control

CNC(=O)OCc1c(COC(=O)NC)c(C)n(-c2ccc(OC)cc2)c1C
T/C (dose: 3.12 mg/kg/injection, schedule: Q01DX009 (ip), vehicle: Klucel (hydroxypropylcellulose) (HPC)): 113 % of control | T/C [1]: 111 % of control

CS(=O)(=O)Nc1ccc(Nc2c3ccccc3nc3cc(Cl)ccc23)cc1
T/C (dose: 3.0 mg/kg/injection, schedule: Q01DX009 (ip), vehicle: saline with Tween-80): 152 % of control | T/C (dose: 37.5 mg/kg/injection, schedule: Q01DX001 (ip), vehicle: saline sonified): 169 % of control | T/C (dose: 75.0 mg/kg/injection, schedule: Q01DX001 (ip), vehicle: saline sonified): 152 % of control
